Experimental data from patent US12239619B2, “Composition for inducing pili formation in bacterium of genus Bifidobacterium” (MORINAGA MILK INDUSTRY CO., LTD., priority 2019, dated 2025).

How the values were obtained:
Assay type in all cases: cell-based
[1] = tested on: Bifidobacterium longum 1-1 strain; experiment: Pili induction in cultured Bifidobacterium longum, Western blotting with anti-FimA antibody; conditions: anaerobic, 37° C.; for pili formation by Western blotting: 10 μg/mL in GAM agar medium, 24 hours (Test Example 5)
Description: KUHIMM culture solution (900 mL) containing human feces used in Test Example 1 was fractionated in the order of MilliQ water, 50% methanol, and 100% methanol (250 mL of each) with an activated carbon column (resin volume: 45 mL). Of each fraction, 100 μL was collected in another container, dried under reduced pressure, and then redissolved in 50 μL of MilliQ water. Subsequently, the Bifidobacterium longum 1-1 strain was cultured in GAM medium, and 50 μL of the redissolved solution of the above fraction was added to 1 mL of the bacterial solution obtained by adjusting the above culture solution at OD600=0.1, and culture was performed at 37° C. for 24 hours. After culture, the cells were collected by centrifugation (4000×g, 5 minutes).
Bifidobacterium longum 1-1 strain was anaerobically cultured at 37° C. for 24 hours on GAM agar medium containing 10 μg/mL of aromatic amino acids or the amino acid metabolite produced by Clostridium sporogenes.

[2] = tested on: Bifidobacterium longum 1-1 strain; experiment: Scanning electron microscope observation of pili in cultured Bifidobacterium longum; conditions: 10 μg/mL in GAM agar medium, anaerobic, 37° C., 24 hours
[3] = tested on: human intestinal epithelial cell line (Caco-2 or HT29-MTX); experiment: Adhesion of cultured Bifidobacterium longum to human intestinal epithelial cell line; conditions: B. longum cultured with 10 μg/mL PPA, 15 hours, 2 hours
Description: Furthermore, the adhesion of the cultured cells to the human intestinal epithelial cell line (Caco-2 or HT29-MTX) was evaluated. Specifically, the Bifidobacterium longum 1-1 strain was cultured on GAM medium containing 10 μg/mL of PPA at 37° C. for 15 hours. The cells were centrifuged (4000×g, 1 min, 4° C.), collected, and suspended in Dulbecco's modified Eagle's medium (DMEM) at OD600=0.5. 0.2 mL of this bacterial solution was added to a chamber slide glass in which HT29-MTX or Caac-2 cells had been cultured in a single layer, and was allowed to stand at 37° C. for 2 hours. After washing with DMEM medium, Bifidobacterium longum adhered with 4% paraformaldehyde was fixed and stained with crystal violet. The number of bacteria per well was counted under a microscope.

| SMILES | pili formation by Western blotting [1] | concentration in the medium that clearly induced the pili formation ([1]; GAM agar medium, 24 hours) | pili polymerization ([1]; GAM agar medium, final concentration 0.01 to 80 μg/mL, 24 hours) | pili observed with scanning electron microscope [2] | adhesion to human intestinal epithelial cell line, presence versus absence [3] |
| --- | --- | --- | --- | --- | --- |
| O=C(O)CCc1ccc(O)cc1 [3-(4-hydroxyphenyl)propionic acid] | pili formation was observed although less significant than in the former case |  |  |  |  |
| O=C(O)CCc1ccccc1 [3-phenylpropionic acid] | pili formation was observed | more than 0.1 μg/mL | induced pili polymerization dose-dependently | large fiber-shaped pili were observed | significantly larger |
